Experimental data as given in ChEMBL document CHEMBL1142612, “A meroterpenoid NF-kappaB inhibitor and drimane sesquiterpenoids from Asafetida” (J Nat Prod, 2006).
Calls of active or inactive are those of the source. The rule behind the calls is not given here.

What was measured:
[1] = Inhibition of NF-kappaB in TNF-alpha-stimulated human cloned Jurkat 5.1 cells cotransfected with HIV1-LTR promoter preincubated for 30 mins before TNFalpha challenge after 6 hrs by luciferase reporter gene assay; assay type: cell-based
[2] = tested on: A549; test: Inhibition of NF-kappaB in TNF-alpha-stimulated human A549 cells cotransfected with KBF-luciferase gene preincubated for 30 mins before TNFalpha challenge after 6 hrs by luciferase reporter gene assay; assay type: cell-based
[3] = tested on: HeLa; test: Cytotoxicity against human HeLa cells using propidium iodide staining by flow cytometry; assay type: functional, cell-based
[4] = tested on: A549; test: Cytotoxicity against human A549 cells using propidium iodide staining by flow cytometry; assay type: functional, cell-based
[5] = tested on: Jurkat; test: Cytotoxicity against human cloned Jurkat 5.1 cells using propidium iodide staining by flow cytometry; assay type: functional, cell-based

Compound | IC50 [1] [µM] | Activity [2] | Activity [3] | Activity [4] | Activity [5]
CC(C)=CCC(O)/C(C)=C/C(O)C/C(C)=C/COc1ccc2ccc(=O)oc2c1 (configuration not stated) | 37.5 |  |  |  | 
CC1=CC(=O)C2=C(C)CC3OC(=O)C(C)=C3C=C12 (configuration not stated) [TARAXACIN] | 57.6 |  |  |  | 
CC(=O)OC(CC=C(C)C)/C(C)=C/C(O)C/C(C)=C/COc1ccc2ccc(=O)oc2c1 (configuration not stated) | 15.1 | Dose-dependent effect | inactive | inactive | inactive
